The target of assay [1] is T1, PARP2 (Homo sapiens, UniProt Q9UGN5).
T1 construct: purchased BPS 80502
Nature of the assay: Inhibition of PARP2 enzyme activity (chemiluminescence). Type of assay: biochemical.

The subject of assay [2] is DLD-1 BRCA2^-/- cells. The experiment in a line: Apoptosis in BRCA2-deficient DLD-1 cells (Annexin V/PI flow cytometry). Type of assay: cell-based, human. Conditions: 7 days, different concentrations, three experiments, FIG. 4. On the procedure:
The mechanism of the anti-proliferative effect of the compounds on BRCA-mutated tumours was analysed, and the impact of the compounds on apoptosis in the BRCA2-mutated cell line was analysed by flow cytometry. BRCA2-deficient human colon cancer DLD-1 cells ([…]) were adherently cultured, with the culture conditions of RPMI1640 medium supplemented with 1% foetal bovine serum and 100 µg/mL hygromycin B. Once entering the logarithmic growth phase, the cells were collected and placed in a 6-well plate with 600,000 cells per well. The cells were allowed to adhere to the plate in a 37°C/5% CO2 incubator overnight. Different concentrations of compounds were added to each well and incubated in the incubator. After 7 days, the cells were collected and placed in a 96-well plate. 195 µL of Annexin V-FITC binding buffer was added to each well to resuspend the cells. Then 5 µL of Annexin V-FITC (beyotime, C1052) was added and gently mixed. […] The data acquired from the flow cytometer were analysed using FlowJo software.
For apoptosis analysis, the apoptosis samples were dragged into FlowJo, the raw data were double-clicked to open the graph window, and FSC-A was selected for the X-axis and SSC-A for the Y-axis. […] The "analysed cell population" was double-clicked in the SSC/FSC plot. […]
(In general: Flow cytometry measures light scatter and fluorescence of single cells or particles in a stream.)

Assay [3] deals with T2, PARP7 (Homo sapiens, UniProt Q7Z3E1).
T2 construct: purchased BPS 80527
T2 sequence (Q7Z3E1 1-657): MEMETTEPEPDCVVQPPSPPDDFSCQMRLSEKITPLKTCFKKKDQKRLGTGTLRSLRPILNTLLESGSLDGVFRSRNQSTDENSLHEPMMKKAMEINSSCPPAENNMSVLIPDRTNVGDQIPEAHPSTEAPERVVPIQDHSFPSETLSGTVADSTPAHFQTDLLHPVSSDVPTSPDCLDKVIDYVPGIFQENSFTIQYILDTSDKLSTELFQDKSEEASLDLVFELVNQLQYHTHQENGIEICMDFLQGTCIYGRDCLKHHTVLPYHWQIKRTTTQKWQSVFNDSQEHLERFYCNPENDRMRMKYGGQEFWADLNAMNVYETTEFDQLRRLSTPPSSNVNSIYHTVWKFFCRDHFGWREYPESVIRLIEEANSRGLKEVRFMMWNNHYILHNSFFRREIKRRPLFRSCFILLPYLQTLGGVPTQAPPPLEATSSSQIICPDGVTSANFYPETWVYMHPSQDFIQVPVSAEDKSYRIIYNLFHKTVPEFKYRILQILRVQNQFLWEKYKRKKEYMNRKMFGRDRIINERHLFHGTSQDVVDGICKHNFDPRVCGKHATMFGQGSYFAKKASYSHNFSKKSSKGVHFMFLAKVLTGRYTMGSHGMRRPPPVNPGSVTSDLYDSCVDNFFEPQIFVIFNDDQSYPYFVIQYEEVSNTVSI
The experiment in a line: Inhibition of PARP7 enzyme activity (chemiluminescent assay kit). Type of assay: biochemical.

Molecules are shown by their SMILES.

T1 sequence (Q9UGN5 whole entry): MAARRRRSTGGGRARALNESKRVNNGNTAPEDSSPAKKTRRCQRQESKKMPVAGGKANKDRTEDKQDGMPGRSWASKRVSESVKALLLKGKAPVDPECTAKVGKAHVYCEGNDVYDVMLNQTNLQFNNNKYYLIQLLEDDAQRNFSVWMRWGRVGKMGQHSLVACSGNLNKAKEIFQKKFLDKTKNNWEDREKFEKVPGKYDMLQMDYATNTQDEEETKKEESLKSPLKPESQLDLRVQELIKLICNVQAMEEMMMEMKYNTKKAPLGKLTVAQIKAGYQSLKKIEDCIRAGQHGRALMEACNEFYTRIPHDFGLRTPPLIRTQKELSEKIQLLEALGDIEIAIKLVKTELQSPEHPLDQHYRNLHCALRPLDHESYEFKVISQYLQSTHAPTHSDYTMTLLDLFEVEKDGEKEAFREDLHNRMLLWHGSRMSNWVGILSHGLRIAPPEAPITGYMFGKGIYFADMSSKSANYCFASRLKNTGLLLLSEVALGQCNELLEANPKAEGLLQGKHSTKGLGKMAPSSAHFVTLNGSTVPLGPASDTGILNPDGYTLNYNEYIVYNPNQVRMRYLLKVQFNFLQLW

By IC50 is commonly meant the concentration that gives 50% inhibition. A low value points to greater potency in that assay. In the case of `[2H]C([2H])([2H])NC(=O)c1ccc(N2CCN(Cc3cnc4c(N)c(CC)c(=O)[nH]c4c3)CC2)c(F)n1` [Example 4, 5-(4-((8-Amino-7-ethyl-6-oxo-5,6-dihydro-1,5-naphthyridin-3-yl)methyl)piperazin-1-yl)-6-fluoro-N-(methyl-d3)picolinamide], the IC50 in assay [1] is 18.6 nM; in assay [3] (enzyme activity), greater than 10000 nM. Further, the “proportion of apoptotic cells” value in assay [2] was “higher proportion of apoptotic cells at different concentrations than the reference compound AZD5305”. Besides, in assay [3] (ratio relative to the PARP1 enzyme activity), the “PARP7 multiple vs PARP1” value is given as “∞”.

For the origin of these results see patent publication EP4620956A1, “PARP1 INHIBITORS” (Zhejiang Yangli Pharmaceutical Technology Co., Ltd., priority 2022, dated 2024).
